Measurements from US12668600B2 (Kumquat Biosciences Inc., priority 2023, dated 2026).

Tests used:
Assay type in all cases: biochemical
KRAS G12D = molecular target: T1, KRAS G12D (Homo sapiens, UniProt P01116, G12D); test: HTRF KRAS-SOS1 interaction assay, KRAS G12D; conditions: binned ≤2 μM / >2 μM, read-out: Inhibition of KRAS G12D (IC50)
T1 construct: made in house; host or cells: E. coli, e.g. BL21 (DE3)
Outline: (§1)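 GST-KRAS + anti-GST-Eu; His-hSOS1 + anti-6His-XL665; cpd in DMSO, duplicate, 10–0.01 μM; ~10 min incubation; HTRF ex 337/em 620, 665 nm; IC50 fitted on 665/620 ratio.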

KRAS G12S = molecular target: T2, KRAS G12S (Homo sapiens, UniProt P01116, G12S); test: HTRF KRAS-SOS1 interaction assay, KRAS G12S; conditions: binned ≤2 μM / >2 μM, read-out: Inhibition of KRAS G12S (IC50)
T2 construct: made in house; host or cells: E. coli, e.g. BL21 (DE3)
Outline: as §1

KRAS G12V = molecular target: T3, KRAS G12V (Homo sapiens, UniProt P01116, G12V); test: HTRF KRAS-SOS1 interaction assay, KRAS G12V; conditions: binned ≤2 μM / >2 μM, read-out: Inhibition of KRAS G12V (IC50)
T3 construct: made in house; host or cells: E. coli, e.g. BL21 (DE3)
Outline: as §1

KRAS WT = molecular target: T4, KRAS WT (Homo sapiens, UniProt P01116); test: HTRF KRAS-SOS1 interaction assay, wildtype KRAS; conditions: binned ≤2 μM / >2 μM, read-out: Inhibition of KRAS WT (IC50)
T4 construct: made in house; host or cells: E. coli, e.g. BL21 (DE3)
Outline: as §1

T3 sequence (P01116 1-188 isoform P01116-2 G12V): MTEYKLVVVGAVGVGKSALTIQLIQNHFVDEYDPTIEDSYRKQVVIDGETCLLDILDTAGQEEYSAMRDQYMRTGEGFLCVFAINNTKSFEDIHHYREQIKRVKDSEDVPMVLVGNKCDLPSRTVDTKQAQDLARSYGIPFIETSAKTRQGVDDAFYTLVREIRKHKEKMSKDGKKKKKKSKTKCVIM
T4 sequence (P01116 1-188 isoform P01116-2): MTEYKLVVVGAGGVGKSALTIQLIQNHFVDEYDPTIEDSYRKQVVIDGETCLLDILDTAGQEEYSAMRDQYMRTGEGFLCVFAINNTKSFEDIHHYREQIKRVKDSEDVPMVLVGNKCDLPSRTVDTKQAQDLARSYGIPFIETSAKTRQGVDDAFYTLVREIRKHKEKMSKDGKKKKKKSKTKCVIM
T2 sequence (P01116 1-188 isoform P01116-2 G12S): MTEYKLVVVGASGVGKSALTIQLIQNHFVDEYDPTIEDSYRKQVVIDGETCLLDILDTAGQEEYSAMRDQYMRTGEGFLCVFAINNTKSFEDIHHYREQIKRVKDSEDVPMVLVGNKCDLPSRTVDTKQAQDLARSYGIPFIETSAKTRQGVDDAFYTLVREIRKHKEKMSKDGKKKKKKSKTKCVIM
T1 sequence (P01116 1-188 isoform P01116-2 G12D): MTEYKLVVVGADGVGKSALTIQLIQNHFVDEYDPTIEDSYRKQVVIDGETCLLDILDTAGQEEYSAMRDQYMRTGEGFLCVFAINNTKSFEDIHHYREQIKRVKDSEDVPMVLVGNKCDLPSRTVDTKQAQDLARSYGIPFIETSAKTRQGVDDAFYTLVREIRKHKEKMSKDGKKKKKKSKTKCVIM

| SMILES | IC50 (KRAS G12D) | IC50 (KRAS G12S) | IC50 (KRAS G12V) | IC50 (KRAS WT) |
| --- | --- | --- | --- | --- |
| C[C@H](c1nccnc1N)N1CCOc2c(C(F)(F)F)c(-c3ccc(F)c4sc(N)c(C#N)c34)c(F)c3nc(OC[C@@]45CCCN4C[C@H](F)C5)nc1c23 (single isomer, unassigned) [Compound 760] | ≤ 2000 nM | ≤ 2000 nM | ≤ 2000 nM | ≤ 2000 nM |
| C[C@H](c1cccnc1N)N1CCOc2c(C(F)(F)F)c(-c3ccc(F)c4sc(N)c(C#N)c34)c(F)c3nc(OC[C@@]45CCCN4C[C@@]4(CC4(F)F)C5)nc1c23 (single isomer, unassigned) [Compound 725] | ≤ 2000 nM | ≤ 2000 nM | ≤ 2000 nM | ≤ 2000 nM |
| C[C@H](c1cccnc1N)N1CCOc2c(C(F)(F)F)c(-c3ccc(F)c4sc(N)c(C#N)c34)c(F)c3nc(OC[C@@]45CCCN4CC(=C(F)F)C5)nc1c23 [Compound 856, 2-amino-4-(4-((R)-1-(2-aminopyridin-3-yl)ethyl)-2-(((S)-2-(difluoromethylene)tetrahydro-1H-pyrrolizin-7a(5H)-yl)methoxy)-10-fluoro-8-(trifluoromethyl)-5,6-dihydro-4H-[1,4]oxazepino[5,6,7-de]quinazolin-9-yl)-7-fluorobenzo[b]thiophene-3-carbonitrile] | ≤ 2000 nM | ≤ 2000 nM | ≤ 2000 nM | ≤ 2000 nM |
| N#Cc1c(N)sc2c(F)ccc(-c3c(C(F)(F)F)c4c5c(nc(OCC6(CN7CCC(=CF)CC7)CC6)nc5c3F)N([C@H](CCC3CCOCC3)c3cccnc3N)CCO4)c12 [Compound 905, 2-amino-4-(4-((R)-1-(2-aminopyridin-3-yl)-3-(tetrahydro-2H-pyran-4-yl)propyl)-10-fluoro-2-((1-((4-(fluoromethylene)piperidin-1-yl)methyl)cyclopropyl)methoxy)-8-(trifluoromethyl)-5,6-dihydro-4H-[1,4]oxazepino[5,6,7-de]quinazolin-9-yl)-7-fluorobenzo[b]thiophene-3-carbonitrile] | ≤ 2000 nM | ≤ 2000 nM | ≤ 2000 nM | ≤ 2000 nM |

Second part, the compound after the results:

| IC50 (KRAS G12D) | IC50 (KRAS G12S) | IC50 (KRAS G12V) | IC50 (KRAS WT) | SMILES |
| --- | --- | --- | --- | --- |
| ≤ 2000 nM | ≤ 2000 nM | ≤ 2000 nM | ≤ 2000 nM | C[C@H](c1ccc(C#N)nc1N)N1CCOc2c(Cl)c(-c3ccc(F)c4sc(N)c(C#N)c34)c(F)c3nc(OC[C@@]45CCCN4C[C@H](F)C5)nc1c23 [Compound 851, 6-amino-5-((1R)-1-(9-(2-amino-3-cyano-7-fluorobenzo[b]thiophen-4-yl)-8-chloro-10-fluoro-2-(((2R,7aS)-2-fluorotetrahydro-1H-pyrrolizin-7a(5H)-yl)methoxy)-5,6-dihydro-4H-[1,4]oxazepino[5,6,7-de]quinazolin-4-yl)ethyl)picolinonitrile] |
| ≤ 2000 nM | ≤ 2000 nM | ≤ 2000 nM | ≤ 2000 nM | C=CCC(c1cccnc1N)N1CCOc2c(Cl)c(-c3ccc(F)c4sc(N)c(C#N)c34)c(F)c3nc(OC[C@@]45CCCN4C[C@H](F)C5)nc1c23 (mixture of isomers) [Compound 623, 2-amino-4-((9R)-4-(1-(2-aminopyridin-3-yl)but-3-en-1-yl)-8-chloro-10-fluoro-2-(((2R,7aS)-2-fluorotetrahydro-1H-pyrrolizin-7a (5H)-yl)methoxy)-5,6-dihydro-4H-[1,4]oxazepino[5,6,7-de]quinazolin-9-yl)-7-fluorobenzo[b]thiophene-3-carbonitrile] |
| ≤ 2000 nM | ≤ 2000 nM | ≤ 2000 nM | ≤ 2000 nM | Cc1ccnc(N)c1[C@@H](C)N1CCOc2c(C(F)(F)F)c(-c3ccc(F)c4sc(N)c(C#N)c34)c(F)c3nc(OC[C@@]45CCCN4C[C@H](F)C5)nc1c23 (single isomer, unassigned) [Compound 821] |
